Experiments:
HepG2 cells = experiment: Cytotoxicity MTT assay on HepG2 cells; conditions: HepG2, 24 h, highest concentration tested (50 μM)
Description: The potential toxicity of TMA analogs on hepatic tissue was assessed by evaluating the viability of HepG2 cells (ATCC, HB-8065) using the MTT assay, as previously reported [22]. Cells were maintained in DMEM complete medium (10% FBS, 1% l-glutamine and 1% PEN-STREP) and seeded in a 96-well plate (5 × 10^4 cells/mL). They were treated for 24 h with TMA analogs (concentration range from 3.125 μM to 50 μM). At the end of the treatment, cells were washed and an MTT solution (0.5 mg/mL in complete medium) was added to each well and incubated for 4 h at 37 °C. The solution was discarded, and the produced blue formazan crystals were dissolved with acidified isopropanol (2% HCl). Absorbance was measured at 570 nm using a multiplate reader (Victor Nivo, Perkin Elmer). The percentage of viable cells was calculated considering untreated cells as control.
The data shown in this figure are the results of three independent experiments, each
performed in quadruplicate.

[1] = system: Salmonella typhimurium mutant TA97A, TA98, TA100, and TA1535 strains; experiment: Ames test, overall result on all strains; assay type: cell-based; conditions: all concentrations, with and without S9 mix
Description: To investigate whether changes in the structure of TMA abolish the mutagenic effect observed with this class of compounds, the most promising TMA analogs were evaluated by the Ames test. Compounds 4-PhDMA and pANDMA were tested for genotoxicity evaluation using the histidine-requiring Salmonella typhimurium mutant TA97A, TA98, TA100, and TA1535 strains that allow checking frameshift mutation and base pair substitution, with and without metabolic activation induced by S9 Mix.
The number of spontaneous revertants is relatively constant, but it dramatically increases—generally in a dose-dependent way—when a mutagen is added to the plate. […]
The mutagenicity assay was performed for the test compounds following the plate incorporation method with the histidine-requiring Salmonella typhimurium mutant TA97A, TA98, TA100, and TA1535 strains purchased by Molecular Toxicology Inc. (Boone, NC, USA; moltox.com). […] The plates were incubated at 37 °C for 72 h and then his+ revertants were checked and counted using a Colony Counter 560 Suntex (Antibioticos, Italy). […] Statistical analysis: relative standard deviations were calculated using the statistical software STATISTICA 6.0 (StatSoft, Italia srl, Vigonza, Italy).

[2] = system: Salmonella typhimurium 1535; experiment: Ames mutagenicity assay, plate incorporation, TA1535; assay type: cell-based
Description: The mutagenicity assay was performed for the test compounds following the plate incorporation method with the histidine-requiring Salmonella typhimurium mutant TA97A, TA98, TA100, and TA1535 strains purchased by Molecular Toxicology Inc. (Boone, NC, USA; moltox.com). All strains (100 µL per plate of fresh overnight cultures) were checked with and without the addition of 0.5 mL of a 5% S9 exogenous metabolic activator (S9 mix). The lyophilized post-mitochondrial supernatant S9 mix (Aroclor 1254-induced, Sprague–Dawley male rat liver in 0.154 M KCl solution), commonly used for the activation of pro-mutagens in mutagenic metabolites (Molecular Toxicology, Inc., Boone, NC, USA), was stored at −80 °C before use. The concentration tested for all the samples were 5, 10, 20, 50, and 100 µL/plate from a stock solution of 500 nM. A fully grown culture of the appropriate tester strain (0.1 mL) was added to 2 mL molten top agar (0.6% agar, 0.6% NaCl, 0.5 mM L-histidine/biotin solution) at 46 °C, together with 0.1 mL of each sample solution at different concentrations, and 0.5 mL S9 mix for assays with metabolic activation. The ingredients were thoroughly mixed and poured onto minimal glucose agar plates (1.5% agar in 2% Vogel–Bonner medium E with 5% glucose solution). DMSO was used as negative a control (100 µL/plate). Positive controls were prepared as follows: 2-aminoanthracene (2 µg/plate) and 2-nitrofluorene (2 µg/plate) for TA 97A, TA98 and TA1535 with and without metabolic activator (S9 mix), respectively; 2-aminoanthracene (2 µg/plate) and sodium azide (2 µg/plate) for TA100, with and without metabolic activator (S9 mix), respectively. The plates were incubated at 37 °C for 72 h and then his+ revertants were checked and counted using a Colony Counter 560 Suntex (Antibioticos, Italy). A sample was considered mutagenic when the observed number of colonies was at least twofold over the spontaneous level of revertants. All determinations were made in triplicate. Statistical analysis: relative standard deviations were calculated using the statistical software STATISTICA 6.0 (StatSoft, Italia srl, Vigonza, Italy). […]
Salmonella typhimurium TA97A Salmonella typhimurium TA98 Salmonella typhimurium TA100 Salmonella typhimurium 1535 […]
average SD t/c average SD t/c average SD t/c average SD t/c average SD t/c average SD t/c average SD t/c average SD t/c […]
*Significant values according to Ames computation (Maron & Ames, 1983); DMSO, C+: negative and positive controls respectively; SD: Standard Deviation; t/c: number of revertant colonies in treated plates/number of revertant colonies in […]

[3] = 1535, +S9, 5 µL/plate of 500 nM stock
[4] = 1535, +S9, 10 µL/plate of 500 nM stock
[5] = 1535, +S9, 20 µL/plate of 500 nM stock
[6] = 1535, +S9, 50 µL/plate of 500 nM stock
[7] = 1535, +S9, 100 µL/plate of 500 nM stock
[8] = 1535, -S9, 5 µL/plate of 500 nM stock
[9] = 1535, -S9, 10 µL/plate of 500 nM stock
[10] = 1535, -S9, 20 µL/plate of 500 nM stock
[11] = 1535, -S9, 50 µL/plate of 500 nM stock
[12] = 1535, -S9, 100 µL/plate of 500 nM stock

Row | SMILES | revertant colonies, average [2, 3] | t/c (revertant colonies treated/untreated plates) [2, 3] | revertant colonies, average [2, 4] | t/c (revertant colonies treated/untreated plates) [2, 4] | revertant colonies, average [2, 5] | t/c (revertant colonies treated/untreated plates) [2, 5] | revertant colonies, average [2, 6] | t/c (revertant colonies treated/untreated plates) [2, 6] | revertant colonies, average [2, 7] | t/c (revertant colonies treated/untreated plates) [2, 7] | revertant colonies, average [2, 8] | t/c (revertant colonies treated/untreated plates) [2, 8] | revertant colonies, average [2, 9] | t/c (revertant colonies treated/untreated plates) [2, 9] | revertant colonies, average [2, 10] | t/c (revertant colonies treated/untreated plates) [2, 10] | revertant colonies, average [2, 11] | t/c (revertant colonies treated/untreated plates) [2, 11] | revertant colonies, average [2, 12] | t/c (revertant colonies treated/untreated plates) [2, 12] | other results
1 | Cc1cc2c(-c3ccccc3)cc(=O)oc2c2c(C)coc12 [4-PhDMA] | 10.5 | 1.0 | 13.5 | 1.3 | 11.0 | 1.0 | 10.5 | 1.0 | 11.0 | 1.0 | 15.0 | 1.4 | 13.0 | 1.2 | 5.5 | 0.5 | 10.0 | 0.9 | 7.0 | 0.6 | cell viability (HepG2 cells): greater than 75%; genotoxic activity (Ames test) [1]: non-genotoxic
2 | Cc1cc(=O)oc2c1cc(-c1ccccc1)c1occ(C)c12 [6-PhDMA] | 13.5 | 1.3 | 12.5 | 1.2 | 10.0 | 0.9 | 10.0 | 0.9 | 14.0 | 1.3 | 13.5 | 1.2 | 14.5 | 1.3 | 7.5 | 0.7 | 8.0 | 0.7 | 9.0 | 0.8 | 
3 | Cc1cc(=O)oc2c1cc(-c1ccc(N)cc1)c1occ(C)c12 [pANDMA] | 14.5 | 1.4 | 17.0 | 1.6 | 12.0 | 1.1 | 13.0 | 1.2 | 14.0 | 1.3 | 17.5 | 1.6 | 13.0 | 1.2 | 5.5 | 0.5 | 9.5 | 0.9 | 10.0 | 0.9 | cell viability (HepG2 cells): greater than 75%; genotoxic activity (Ames test) [1]: non-genotoxic

Source: publication PMC9570109, “Improved Trimethylangelicin Analogs for Cystic Fibrosis: Design, Synthesis and Preliminary Screening” (International Journal of Molecular Sciences, 2022)
